How the values were obtained:
Type in all cases: in vivo, human
[1] = tested on: four non-smoking volunteers (2 men and 2 women); assay: Taste intensity score, 11-point scale (0 not intense to 10 very intense); conditions: averaged over 4 subjects, 6 repetitions each
Procedure: (§1) In this test, four non-smoking volunteers (2 men and 2 women) were chosen from 12 people for their performance in taste recognition. Their mean age was 32 years, ranging from 24 to 40 years. […] These four people were trained for several months to recognize and detect the four basic tastes, and also regarding the procedures of sensory and physiological analysis.
(§2) The four basic tastes (sweet, salty, sour and bitter) were used. The solutions were prepared with citric acid for the sour taste, caffeine for the bitter taste, sodium chloride for the salty taste and sucrose for the sweet taste (all purchased from Sigma Aldrich, France) in Evian water. Evian water was also used as control and blank. Each taste was prepared with the four concentrations mentioned in table 1.
(§3) The amount of solution to be tested was standardized at 10 ml. In order to impregnate the whole of the oral cavity, the subjects kept the solution in their mouth for 5 s before swallowing it.
(§4) The sessions were individual and the subjects were asked not to eat or drink anything for at least 1 h before the test. They arrived 15 min before the start of the session in order to acclimatize to the environmental conditions, in particular the temperature of the room (kept constant at 23° C.) and to be resting seated on a comfortable chair. The 16 solutions for testing and two additional samples of water containing solely Evian water, added to the references, were presented monadically following a test order determined from a “balanced incomplete block design”. During a session, 9 samples out of 18 were presented to minimize sensory fatigue. In addition, a sample of Evian was always tested as a “blank” sample in order to avoid the first-order effect (Lawless, H. T. & Heymann, H., 2010, Sensory evaluation of food: Principles and practices. Springer, New York) and was excluded from the analysis. A light signal was sent to give the instruction to test the sample. When the disturbance to the nervous system returned to its baseline level (after approximately 1 min), a second light signal indicated to the subjects that they should complete a questionnaire regarding the stimulus tested previously. The first part of the questionnaire was linked to the identification of the taste (i.e. determining the quality of the taste); the subjects had to choose between five labels: sweet, salty, sour, bitter or neutral. They then had to assign a taste intensity score on an 11-point scale (from 0 “not intense” (i.e. taste of Evian only) to 10 “very intense”) and finally to give a hedonic score on an 11-point scale (from 0 “very unpleasant” to 10 “very pleasant”, 5 being “neutral”).
(§5) This procedure was repeated for each of the 9 stimuli. A session lasted approximately 45 min including a debriefing at the end of the test to ensure understanding of the sense of the signal variations. The experiment was repeated 12 times per subject, meaning that the data are composed of 6 data sets per subject and per product and 12 data sets for the Evian product per subject. Thus, the database consists of 432 samples.
(§6) The effect of the taste on the hedonic and intensity scores was analyzed by an analysis of variance (ANOVA) including the product effect, the subject effect and the product-subject interaction. The subject effect was fixed because there were only 4 subjects and the results could only be applied to a particular schema. The differences were considered to be significant at a level of 0.05.

[2] = tested on: four non-smoking volunteers (2 men and 2 women); assay: Taste identification questionnaire, trained panel (count of 6 repetitions per subject in which the stimulus was given each taste label; level of recognition %); conditions: for Level of Recognition %: Bitter / Level of Recognition %: Neutral / Level of Recognition %: Salty / Level of Recognition %: Sour / Level of Recognition %: Sweet: four subjects
Procedure: as §1, §2, §3, §4, §5

[3] = tested on: four non-smoking volunteers (2 men and 2 women); assay: Hedonic score, 11-point scale (0 very unpleasant to 10 very pleasant, 5 neutral); conditions: concentration 4 (highest)
Procedure: as §1, §2, §3, §4, §5, §6

O=C(O)CC(O)(CC(=O)O)C(=O)O [Citric acid, citric acid]
intensity score ([1]; concentration 1): 1.2±1.5
intensity score ([1]; concentration 2): 1.0±1.0
intensity score ([1]; concentration 4): 8.4±1.2
Individual recognition score: Bitter ([2]; Subject 1, dilution 1): 1
Individual recognition score: Neutral ([2]; Subject 1, dilution 1): 3
Individual recognition score: Salty ([2]; Subject 1, dilution 1): 0
Individual recognition score: Sour ([2]; Subject 1, dilution 1): 1
Individual recognition score: Sweet ([2]; Subject 1, dilution 1): 1
Individual recognition score: Bitter ([2]; Subject 1, dilution 2): 1
Individual recognition score: Neutral ([2]; Subject 1, dilution 2): 4
Individual recognition score: Salty ([2]; Subject 1, dilution 2): 0
Individual recognition score: Sour ([2]; Subject 1, dilution 2): 1
Individual recognition score: Sweet ([2]; Subject 1, dilution 2): 0
Individual recognition score: Bitter ([2]; Subject 1, dilution 3): 0
Individual recognition score: Neutral ([2]; Subject 1, dilution 3): 0
Individual recognition score: Salty ([2]; Subject 1, dilution 3): 0
Individual recognition score: Sour ([2]; Subject 1, dilution 3): 6
Individual recognition score: Sweet ([2]; Subject 1, dilution 3): 0
Individual recognition score: Bitter ([2]; Subject 1, dilution 4): 0
Individual recognition score: Neutral ([2]; Subject 1, dilution 4): 0
Individual recognition score: Salty ([2]; Subject 1, dilution 4): 0
Individual recognition score: Sour ([2]; Subject 1, dilution 4): 6
Individual recognition score: Sweet ([2]; Subject 1, dilution 4): 0
Individual recognition score: Bitter ([2]; Subject 2, dilution 1): 0
Individual recognition score: Neutral ([2]; Subject 2, dilution 1): 5
Individual recognition score: Salty ([2]; Subject 2, dilution 1): 0
Individual recognition score: Sour ([2]; Subject 2, dilution 1): 0
Individual recognition score: Sweet ([2]; Subject 2, dilution 1): 1
Individual recognition score: Bitter ([2]; Subject 2, dilution 2): 0
Individual recognition score: Neutral ([2]; Subject 2, dilution 2): 3
Individual recognition score: Salty ([2]; Subject 2, dilution 2): 0
Individual recognition score: Sour ([2]; Subject 2, dilution 2): 2
Individual recognition score: Sweet ([2]; Subject 2, dilution 2): 1
Individual recognition score: Bitter ([2]; Subject 2, dilution 3): 0
Individual recognition score: Neutral ([2]; Subject 2, dilution 3): 0
Individual recognition score: Salty ([2]; Subject 2, dilution 3): 0
Individual recognition score: Sour ([2]; Subject 2, dilution 3): 6
Individual recognition score: Sweet ([2]; Subject 2, dilution 3): 0
Individual recognition score: Bitter ([2]; Subject 2, dilution 4): 0
Individual recognition score: Neutral ([2]; Subject 2, dilution 4): 0
Individual recognition score: Salty ([2]; Subject 2, dilution 4): 0
Individual recognition score: Sour ([2]; Subject 2, dilution 4): 6
Individual recognition score: Sweet ([2]; Subject 2, dilution 4): 0
Individual recognition score: Bitter ([2]; Subject 3, dilution 1): 2
Individual recognition score: Neutral ([2]; Subject 3, dilution 1): 3
Individual recognition score: Salty ([2]; Subject 3, dilution 1): 0
Individual recognition score: Sour ([2]; Subject 3, dilution 1): 1
Individual recognition score: Sweet ([2]; Subject 3, dilution 1): 0
Individual recognition score: Bitter ([2]; Subject 3, dilution 2): 4
Individual recognition score: Neutral ([2]; Subject 3, dilution 2): 1
Individual recognition score: Salty ([2]; Subject 3, dilution 2): 0
Individual recognition score: Sour ([2]; Subject 3, dilution 2): 1
Individual recognition score: Sweet ([2]; Subject 3, dilution 2): 0
Individual recognition score: Bitter ([2]; Subject 3, dilution 3): 0
Individual recognition score: Neutral ([2]; Subject 3, dilution 3): 0
Individual recognition score: Salty ([2]; Subject 3, dilution 3): 0
Individual recognition score: Sour ([2]; Subject 3, dilution 3): 6
Individual recognition score: Sweet ([2]; Subject 3, dilution 3): 0
Individual recognition score: Bitter ([2]; Subject 3, dilution 4): 0
Individual recognition score: Neutral ([2]; Subject 3, dilution 4): 0
Individual recognition score: Salty ([2]; Subject 3, dilution 4): 0
Individual recognition score: Sour ([2]; Subject 3, dilution 4): 6
Individual recognition score: Sweet ([2]; Subject 3, dilution 4): 0
Individual recognition score: Bitter ([2]; Subject 4, dilution 1): 3
Individual recognition score: Neutral ([2]; Subject 4, dilution 1): 2
Individual recognition score: Salty ([2]; Subject 4, dilution 1): 0
Individual recognition score: Sour ([2]; Subject 4, dilution 1): 1
Individual recognition score: Sweet ([2]; Subject 4, dilution 1): 0
Individual recognition score: Bitter ([2]; Subject 4, dilution 2): 1
Individual recognition score: Neutral ([2]; Subject 4, dilution 2): 1
Individual recognition score: Salty ([2]; Subject 4, dilution 2): 0
Individual recognition score: Sour ([2]; Subject 4, dilution 2): 4
Individual recognition score: Sweet ([2]; Subject 4, dilution 2): 0
Individual recognition score: Bitter ([2]; Subject 4, dilution 3): 0
Individual recognition score: Neutral ([2]; Subject 4, dilution 3): 0
Individual recognition score: Salty ([2]; Subject 4, dilution 3): 0
Individual recognition score: Sour ([2]; Subject 4, dilution 3): 6
Individual recognition score: Sweet ([2]; Subject 4, dilution 3): 0
Individual recognition score: Bitter ([2]; Subject 4, dilution 4): 0
Individual recognition score: Neutral ([2]; Subject 4, dilution 4): 0
Individual recognition score: Salty ([2]; Subject 4, dilution 4): 0
Individual recognition score: Sour ([2]; Subject 4, dilution 4): 6
Individual recognition score: Sweet ([2]; Subject 4, dilution 4): 0
Level of Recognition %: Bitter ([2]; dilution 1): 25%
Level of Recognition %: Neutral ([2]; dilution 1): 54%
Level of Recognition %: Salty ([2]; dilution 1): 0%
Level of Recognition %: Sour ([2]; dilution 1): 13%
Level of Recognition %: Sweet ([2]; dilution 1): 8%
Level of Recognition %: Bitter ([2]; dilution 2): 25%
Level of Recognition %: Neutral ([2]; dilution 2): 38%
Level of Recognition %: Salty ([2]; dilution 2): 0%
Level of Recognition %: Sour ([2]; dilution 2): 33%
Level of Recognition %: Sweet ([2]; dilution 2): 4%
Level of Recognition %: Bitter ([2]; dilution 3): 0%
Level of Recognition %: Neutral ([2]; dilution 3): 0%
Level of Recognition %: Salty ([2]; dilution 3): 0%
Level of Recognition %: Sour ([2]; dilution 3): 100%
Level of Recognition %: Sweet ([2]; dilution 3): 0%
Level of Recognition %: Bitter ([2]; dilution 4): 0%
Level of Recognition %: Neutral ([2]; dilution 4): 0%
Level of Recognition %: Salty ([2]; dilution 4): 0%
Level of Recognition %: Sour ([2]; dilution 4): 100%
Level of Recognition %: Sweet ([2]; dilution 4): 0%
hedonic score [3]: 3.3±2.4

Source: patent US20180188224A1, “METHOD FOR CONSTRUCTING A SENSORY SPACE” (CENTRE SCIENTIFIQUE ET TECHNIQUE DU BATIMENT (CSTB), priority 2015, published 2018)
